Test results from patent US7323469B2, “7H-pyrrolo[2,3-d]pyrimidine derivatives” (Novartis AG, priority 2001, dated 2008).

First: C[C@@H](Nc1ncnc2[nH]c(-c3ccc(CN(CCO)CCO)cc3)cc12)c1ccccc1 [Example 82, 2-((2-Hydroxy-ethyl)-{4-[4-((R)-1-phenyl-ethylamino)-7H-pyrrolo[2,3-d]pyrimidin-6-yl]-benzyl}-amino)-ethanol]
Second: CCNCc1ccc(-c2cc3c(N[C@H](C)c4ccccc4)ncnc3[nH]2)cc1 [Example 16f, [6-(4-Ethylaminomethyl-phenyl)-7H-pyrrolo[2,3-d]pyrimidin-4-yl]-((R)-1-phenyl-ethyl)-amine]
The melting point of the first is lower: 194 to 197 °C for the first, 236 to 238 °C for the second.

First: C[C@@H](Nc1ncnc2[nH]c(-c3ccc(CN4CCN(C)CC4)cc3)cc12)c1ccc(Cl)cc1 [Example 77, [(R)-1-(4-Chloro-phenyl)-ethyl]-{6-[4-(4-methyl-piperazin-1-ylmethyl)-phenyl]-7H-pyrrolo[2,3-d]pyrimidin-4-yl}-amine]
Second: C[C@@H](Nc1ncnc2[nH]c(-c3ccc(CN4CCN(C)CC4)cc3)cc12)c1ccccc1 [Example 9, {6-[4-(4-Methyl-piperazin-1-ylmethyl)-phenyl]-7H-pyrrolo[2,3-d]pyrimidin-4-yl}-((R)-1-phenyl-ethyl)-amine]
The melting point of the first is lower: 232 to 233 °C for the first, 248 to 250 °C for the second.

First: Cc1cc2c(F)c(Oc3ncnc4[nH]c(-c5ccc(CN6CCOCC6)cc5)cc34)ccc2[nH]1 [Example 143, 4-(4-Fluoro-2-methyl-1H-indol-5-yloxy)-6-(4-morpholin-4-ylmethyl-phenyl)-7H-pyrrolo[2,3-d]pyrimidine]
Second: Clc1ccccc1CNc1ncnc2[nH]c(-c3ccc(CN4CCOCC4)cc3)cc12 [Example 93, (2-Chloro-benzyl)-[6-(4-morpholin-4-ylmethyl-phenyl)-7H-pyrrolo[2,3-d]pyrimidin-4-yl]-amine]
The melting point of the first is higher: 280 to 282 °C for the first, 276 to 279 °C for the second.

Compared with CN(C)Cc1cccc(-c2cc3c(Nc4ccc(F)c(Cl)c4)ncnc3[nH]2)c1 [Example 33, (3-Chloro-4-fluoro-phenyl)-[6-(3-dimethylaminomethyl-phenyl)-7H-pyrrolo[2,3-d]pyrimidin-4-yl]-amine], Fc1ccc(Nc2ncnc3[nH]c(-c4cccc(CN5CCOCC5)c4)cc23)cc1Cl [Example 39, (3-Chloro-4-fluoro-phenyl)-[6-(3-morpholin-4-ylmethyl-phenyl)-7H-pyrrolo[2,3-d]pyrimidin-4-yl]-amine] is higher in melting point: 218 to 220 °C for the first, 290 to 292 °C for the second.

First: CCN(CC)Cc1ccc(-c2cc3c(NCc4ccccc4Cl)ncnc3[nH]2)cc1 [Example 96, (2-Chloro-benzyl)-[6-(4-diethylaminomethyl-phenyl)-7H-pyrrolo[2,3-d]pyrimidin-4-yl]-amine]
Second: CCN1CCN(Cc2ccc(-c3cc4c(NCc5ccccc5Cl)ncnc4[nH]3)cc2)CC1 [Example 91, (2-Chloro-benzyl)-{6-[4-(4-ethyl-piperazin-1-ylmethyl)-phenyl]-7H-pyrrolo[2,3-d]pyrimidin-4-yl}-amine]
The melting point of the first is higher: 257 to 258 °C for the first, 255 to 256 °C for the second.

First: Clc1ccccc1CNc1ncnc2[nH]c(-c3ccc(CN4CCCCC4)cc3)cc12 [Example 92, (2-Chloro-benzyl)-[6-(4-piperidin-1-ylmethyl-phenyl)-7H-pyrrolo[2,3-d]pyrimidin-4-yl]-amine]
Second: Clc1cccc(CNc2ncnc3[nH]c(-c4ccc(CN5CCCCC5)cc4)cc23)c1 [Example 85, (3-Chloro-benzyl)-[6-(4-piperidin-1-ylmethyl-phenyl)-7H-pyrrolo[2,3-d]pyrimidin-4-yl]-amine]
The melting point of the first is higher: 262 to 264 °C for the first, 234 to 235 °C for the second.

Compared with Clc1cccc(CNc2ncnc3[nH]c(-c4ccc(CN5CCCC5)cc4)cc23)c1 [Example 88, (3-Chloro-benzyl)-[6-(4-pyrrolidin-1-ylmethyl-phenyl)-7H-pyrrolo[2,3-d]pyrimidin-4-yl]-amine], Cc1cccc(CNc2ncnc3[nH]c(-c4ccc(CN5CCCCC5)cc4)cc23)c1 [Example 107d, (3-Methyl-benzyl)-[6-(4-piperidin-1-ylmethyl-phenyl)-7H-pyrrolo[2,3-d]pyrimidin-4-yl]-amine] is higher in melting point: 222 to 225 °C for the first, 246 to 248 °C for the second.

First: Cc1cccc(CNc2ncnc3[nH]c(-c4ccc(CN5CCN(C)CC5)cc4)cc23)c1 [Example 107i, (3-Methyl-benzyl)-{6-[4-(4-methyl-piperazin-1-ylmethyl)-phenyl]-7H-pyrrolo[2,3-d]pyrimidin-4-yl}-amine]
Second: CN1CCN(Cc2ccc(-c3cc4c(NCc5cccc(Cl)c5)ncnc4[nH]3)cc2)CC1 [Example 89, (3-Chloro-benzyl)-{6-[4-(4-methyl-piperazin-1-ylmethyl)-phenyl]-7H-pyrrolo[2,3-d]pyrimidin-4-yl}-amine]
The melting point of the first is higher: 244 to 246 °C for the first, 235 to 237 °C for the second.

First: c1ccc(COc2ccc(Nc3ncnc4[nH]c(-c5ccc(CN6CCCC6)cc5)cc34)cc2)cc1 [Example 23, (4-Benzyloxy-phenyl)-[6-(4-pyrrolidin-1-ylmethyl-phenyl)-7H-pyrrolo[2,3-d]pyrimidin-4-yl]-amine]
Second: c1ccc(COc2ccc(Nc3ncnc4[nH]c(-c5ccc(CN6CCOCC6)cc5)cc34)cc2)cc1 [Example 20, (4-Benzyloxy-phenyl)-[6-(4-morpholin-4-ylmethyl-phenyl)-7H-pyrrolo[2,3-d]pyrimidin-4-yl]-amine]
The melting point of the first is lower: 265 to 267 °C for the first, 272 to 274 °C for the second.

First: CCN1CCN(Cc2ccc(-c3cc4c(Nc5ccc(OCc6ccccc6)cc5)ncnc4[nH]3)cc2)CC1 [Example 22, (4-Benzyloxy-phenyl)-{6-[4-(4-ethyl-piperazin-1-ylmethyl)-phenyl]-7H-pyrrolo[2,3-d]pyrimidin-4-yl}-amine]
Second: CN(C)Cc1ccc(-c2cc3c(Nc4ccc(OCc5ccccc5)cc4)ncnc3[nH]2)cc1 [Example 17, (4-Benzyloxy-phenyl)-[6-(4-dimethylaminomethyl-phenyl)-7H-pyrrolo[2,3-d]pyrimidin-4-yl]-amine]
The melting point of the first is lower: 256 to 258 °C for the first, 272 to 274 °C for the second.

First: CN(C)Cc1ccc(-c2cc3c(NCc4cc(Cl)ccc4Cl)ncnc3[nH]2)cc1 [Example 98, (2,5-Dichloro-benzyl)-[6-(4-dimethylaminomethyl-phenyl)-7H-pyrrolo[2,3-d]pyrimidin-4-yl]-amine]
Second: Clc1ccc(Cl)c(CNc2ncnc3[nH]c(-c4ccc(CN5CCCC5)cc4)cc23)c1 [Example 103, (2,5-Dichloro-benzyl)-[6-(4-pyrrolidin-1-ylmethyl-phenyl)-7H-pyrrolo[2,3-d]pyrimidin-4-yl]-amine]
The melting point of the first is lower: 254 to 257 °C for the first, 266 to 268 °C for the second.

First: O=C(CN1CCCCC1)NCc1ccc(-c2cc3c(Nc4ccc(F)c(Cl)c4)ncnc3[nH]2)cc1 [Example 49, N-{4-[4-(3-Chloro-4-fluoro-phenylamino)-7H-pyrrolo[2,3-d]pyrimidin-6-yl]-benzyl}-2-piperidin-1-yl-acetamide]
Second: O=C(CN1CCCCC1)NCc1ccc(-c2cc3c(Nc4ccc(OCc5ccccc5)cc4)ncnc3[nH]2)cc1 [Example 53, N-{4-[4-(4-Benzyloxy-phenylamino)-7H-pyrrolo[2,3-d]pyrimidin-6-yl]-benzyl}-2-piperidin-1-yl-acetamide]
The melting point of the first is lower: 229 to 232 °C for the first, 246 to 248 °C for the second.

Compared with COc1cc(CNc2ncnc3[nH]c(-c4ccc(CN(C)C)cc4)cc23)ccn1 [Example 124, (2-Methoxy-pyridin-4-ylmethyl)-{6-[4-(dimethylamino-methyl)-phenyl]-7H-pyrrolo[2,3-d]pyrimidin-4-yl}-amine], CN(C)Cc1ccc(-c2cc3c(Nc4cccc(Cl)c4)ncnc3[nH]2)cc1.Cl is higher in melting point: 210 to 211 °C for the first, 280 to 283 °C for the second.

Compared with CCN1CCN(Cc2ccc(-c3cc4c(NCc5cccc(Cl)c5)ncnc4[nH]3)cc2)CC1 [Example 83, (3-Chloro-benzyl)-{6-[4-(4-ethyl-piperazin-1-ylmethyl)-phenyl]-7H-pyrrolo[2,3-d]pyrimidin-4-yl}-amine], CCN1CCN(Cc2cccc(-c3cc4c(Nc5ccc(F)c(Cl)c5)ncnc4[nH]3)c2)CC1 [Example 35, (3-Chloro-4-fluoro-phenyl)-{6-[3-(4-ethyl-piperazin-1-ylmethyl)-phenyl]-7H-pyrrolo[2,3-d]pyrimidin-4-yl}-amine] is lower in melting point: 241 to 243 °C for the first, 238 to 240 °C for the second.

Compared with C[C@@H](Nc1ncnc2[nH]c(-c3cccc(CN4CCN(C)CC4)c3)cc12)c1ccccc1 [Example 29, {6-[3-(4-Methyl-piperazin-1-ylmethyl)-phenyl]-7H-pyrrolo[2,3-d]pyrimidin-4-yl}-((R)-1-phenyl-ethyl)-amine], C[C@@H](Nc1ncnc2[nH]c(-c3ccc(CN4CCNCC4)cc3)cc12)c1ccccc1 [Example 145, ((R)-1-Phenyl-ethyl)-[6-(4-piperazin-1-ylmethyl-phenyl)-7H-pyrrolo[2,3-d]pyrimidin-4-yl]-amine] is higher in melting point: 112 to 115 °C for the first, 240 to 242 °C for the second.

First: CC1CN(Cc2ccc(-c3cc4c(Nc5ccc(F)c(Cl)c5)ncnc4[nH]3)cc2)CC(C)N1 (centres unmarked) [Example 8, (3-Chloro-4-fluoro-phenyl)-{6-[4-(3,5-dimethyl-piperazin-1-ylmethyl)-phenyl]-7H-pyrrolo[2,3-d]pyrimidin-4-yl}-amine]
Second: CCN(CC)CCC(=O)NCc1ccc(-c2cc3c(Nc4ccc(F)c(Cl)c4)ncnc3[nH]2)cc1 [Example 58, N-{4-[4-(3-Chloro-4-fluoro-phenylamino)-7H-pyrrolo[2,3-d]pyrimidin-6-yl]-benzyl}-3-diethylamino-propionamide]
The melting point of the first is higher: 261 to 263 °C for the first, 229 to 232 °C for the second.

First: C[C@@H](Nc1ncnc2[nH]c(-c3ccc(CN(C)C)cc3)cc12)c1ccc(Cl)cc1 [Example 76, [(R)-1-(4-Chloro-phenyl)-ethyl]-[6-(4-dimethylaminomethyl-phenyl)-7H-pyrrolo[2,3-d]pyrimidin-4-yl]-amine]
Second: CCN(CC)CCC(=O)NCc1ccc(-c2cc3c(N[C@H](C)c4ccccc4)ncnc3[nH]2)cc1 [Example 55, 3-Diethylamino-N-{4-[4-((R)-1-phenyl-ethyl-amino)-7H-pyrrolo[2,3-d]pyrimidin-6-yl]-benzyl}-propionamide]
The melting point of the first is higher: 273 to 274 °C for the first, 175 to 177 °C for the second.

Compound C[C@@H](Nc1ncnc2[nH]c(-c3ccc(CNC(=O)CCN4CCCCC4)cc3)cc12)c1ccccc1 [Example 54, N-{4-[4-((R)-1-Phenyl-ethylamino)-7H-pyrrolo[2,3-d]pyrimidin-6-yl]-benzyl}-3-piperidin-1-yl-propionamide] has a melting point of 140 °C.
